Bounds are passed on as bounds.

Broadly, the IC50 is the midpoint of a concentration-inhibition curve.

T1 sequence (P23443 whole entry T412E): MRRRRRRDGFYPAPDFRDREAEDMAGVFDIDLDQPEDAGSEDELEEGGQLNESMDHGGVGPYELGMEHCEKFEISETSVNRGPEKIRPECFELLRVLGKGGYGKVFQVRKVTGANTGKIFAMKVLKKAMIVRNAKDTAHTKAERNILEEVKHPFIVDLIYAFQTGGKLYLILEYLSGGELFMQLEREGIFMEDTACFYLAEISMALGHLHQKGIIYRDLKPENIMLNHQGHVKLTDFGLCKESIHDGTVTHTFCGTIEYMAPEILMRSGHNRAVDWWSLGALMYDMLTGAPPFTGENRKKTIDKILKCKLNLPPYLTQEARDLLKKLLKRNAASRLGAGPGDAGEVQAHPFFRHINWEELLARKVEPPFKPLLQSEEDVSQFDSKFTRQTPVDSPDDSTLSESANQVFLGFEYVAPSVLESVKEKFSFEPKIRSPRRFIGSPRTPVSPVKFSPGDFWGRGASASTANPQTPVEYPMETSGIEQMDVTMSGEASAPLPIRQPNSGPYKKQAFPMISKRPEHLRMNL

This test concerns the target T1, P70S6K (T412E mutant, Millipore) (Homo sapiens, UniProt P23443, T412E).
T1 construct: purchased Millipore
Description: p70S6K enzyme assay. Type of test: biochemical. Particulars: class symbol; 3 nM P70S6K, 24 μM ATP; read-out: IC50 (p70S6K). Here is the method: P70S6K inhibitor compounds are diluted and plated in 96 well plates. A reaction mixture including the following components is then added to the compound plate to initiate the enzyme reaction; P70S6K (3 nM, T412E mutant, Millipore) is mixed with 24 μM ATP in an assay buffer containing 100 mM Hepes (pH 7.5), 5 mM MgCl2, 1 mM DTT, 0.015% Brij and 1 μM of the substrate peptide FITC-AHA-AKRRRLSSLRA-OH (derived from the S6 ribosomal protein sequence, FITC=fluorescein isothiocyanate, AHA=6-aminohexanoic acid). The reaction is incubated for 90 min at 25° C., before the addition of 10 mM EDTA to stop the reaction. The proportion of substrate and product (phosphorylated) peptide is analysed on a Caliper Life Sciences Lab Chip 3000, using a pressure of −1.4 psi, and upstream and downstream voltages of −3000 and −700 respectively. Product peaks are resolved before substrate peaks on the resulting chromatograms.
With `Cc1ccc([C@@H](CN)NC(=O)c2sccc2Nc2ccnc3[nH]ccc23)cc1` (stereo in doubt) [Example 122, 3-(1H-Pyrrolo[2,3-b]pyridin-4-ylamino)-thiophene-2-carboxylic acid (2-amino-1-p-tolyl-ethyl)-amide], the IC50 was less than 100 nM. The value for `COc1cccc([C@@H](CN)NC(=O)c2sccc2Nc2ccnc3[nH]ccc23)c1` (stereo in doubt) [Example 123, 3-(1H-Pyrrolo[2,3-b]pyridin-4-ylamino)-thiophene-2-carboxylic acid [2-amino-1-(3-methoxy-phenyl)-ethyl]-amide] was less than 100 nM. As to `NC[C@@H](NC(=O)c1sccc1Nc1ccnc2[nH]ccc12)c1cccc(Cl)c1` (stereo in doubt) [Example 124, 3-(1H-Pyrrolo[2,3-b]pyridin-4-ylamino)-thiophene-2-carboxylic acid [2-amino-1-(3-chloro-phenyl)-ethyl]-amide], the IC50 was less than 100 nM.

With `NC[C@@H](NC(=O)c1sccc1Nc1ccnc2[nH]ccc12)c1ccc(Cl)c(Cl)c1` (stereo in doubt) [Example 125, 3-(1H-Pyrrolo[2,3-b]pyridin-4-ylamino)-thiophene-2-carboxylic acid [2-amino-1-(3,4-dichloro-phenyl)-ethyl]-amide], the concentration for half-maximal inhibition (IC50) is less than 100 nM. As for `O=C(NCC1CCCO1)c1sccc1Nc1ccnc2[nH]ccc12` (stereo not shown) [Example 3, 3-(1H-Pyrrolo[2,3-b]pyridin-4-ylamino)-thiophene-2-carboxylic acid (tetrahydro-furan-2-ylmethyl)-amide], the figure is 100 to 1000 nM. The value for `O=C(c1sccc1Nc1ccnc2[nH]ccc12)N1CCCC1` [Example 4, Pyrrolidin-1-yl-[3-(1H-pyrrolo[2,3-b]pyridin-4-ylamino)-thiophen-2-yl]-methanone] was 100 to 1000 nM. As for `CC(C)(C)OC(=O)N1CCC(NC(=O)c2sccc2Nc2ccnc3[nH]ccc23)C1` (stereo not shown) [Example 5, 3-{[3-(1H-Pyrrolo[2,3-b]pyridin-4-ylamino)-thiophene-2-carbonyl]-amino}-pyrrolidine-1-carboxylic acid tert-butyl ester], the figure is 100 to 1000 nM; as for `O=C(NC1CCNC1)c1sccc1Nc1ccnc2[nH]ccc12` (stereo not shown) [Example 6, 3-(1H-Pyrrolo[2,3-b]pyridin-4-ylamino)-thiophene-2-carboxylic acid pyrrolidin-3-ylamide], less than 100 nM.

Take `O=C(NCc1ccccn1)c1sccc1Nc1ccnc2[nH]ccc12` [Example 7, 3-(1H-Pyrrolo[2,3-b]pyridin-4-ylamino)-thiophene-2-carboxylic acid (pyridin-2-ylmethyl)-amide]: the IC50 lay within 100 to 1000 nM. As for `O=C(NCc1cccnc1)c1sccc1Nc1ccnc2[nH]ccc12` [Example 8, 3-(1H-Pyrrolo[2,3-b]pyridin-4-ylamino)-thiophene-2-carboxylic acid (pyridin-3-ylmethyl)-amide], the figure is 100 to 1000 nM; as for `O=C(NC1CCCNC1)c1sccc1Nc1ccnc2[nH]ccc12` (stereo not shown) [Example 9, 3-(1H-Pyrrolo[2,3-b]pyridin-4-ylamino)-thiophene-2-carboxylic acid piperidin-3-ylamide], 100 to 1000 nM.

As for `CC(CO)NC(=O)c1sccc1Nc1ccnc2[nH]ccc12` (stereo not shown) [Example 10, 3-(1H-Pyrrolo[2,3-b]pyridin-4-ylamino)-thiophene-2-carboxylic acid (2-hydroxy-1-methyl-ethyl)-amide], the 50% inhibitory concentration (IC50) lay in the range of 100 to 1000 nM. `CC(O)CNC(=O)c1sccc1Nc1ccnc2[nH]ccc12` (stereo not shown) [Example 11, 3-(1H-Pyrrolo[2,3-b]pyridin-4-ylamino)-thiophene-2-carboxylic acid (2-hydroxy-propyl)-amide]: the IC50 fell in the range of 100 to 1000 nM. The value for `O=C(NCCOc1ccccc1)c1sccc1Nc1ccnc2[nH]ccc12` [Example 12, 3-(1H-Pyrrolo[2,3-b]pyridin-4-ylamino)-thiophene-2-carboxylic acid (2-phenoxy-ethyl)-amide] was 100 to 1000 nM. The value for `O=C(NCCC1=CCCCC1)c1sccc1Nc1ccnc2[nH]ccc12` [Example 13, 3-(1H-Pyrrolo[2,3-b]pyridin-4-ylamino)-thiophene-2-carboxylic acid (2-cyclohex-1-enyl-ethyl)-amide] was less than 100 nM; that for `NS(=O)(=O)c1ccc(CCNC(=O)c2sccc2Nc2ccnc3[nH]ccc23)cc1` [Example 14, 3-(1H-Pyrrolo[2,3-b]pyridin-4-ylamino)-thiophene-2-carboxylic acid [2-(4-sulfamoyl-phenyl)-ethyl]-amide] was less than 100 nM.

Consider `O=C(NCCc1c[nH]cn1)c1sccc1Nc1ccnc2[nH]ccc12` [Example 15, 3-(1H-Pyrrolo[2,3-b]pyridin-4-ylamino)-thiophene-2-carboxylic acid [2-(1H-imidazol-4-yl)-ethyl]-amide], for which the 50% inhibitory concentration (IC50) was in the range of 100 to 1000 nM.

For the compound `O=C(NCCN1CCOCC1)c1sccc1Nc1ccnc2[nH]ccc12` [Example 16, 3-(1H-Pyrrolo[2,3-b]pyridin-4-ylamino)-thiophene-2-carboxylic acid (2-morpholin-4-yl-ethyl)-amide], the concentration for half-maximal inhibition (IC50) was 100 to 1000 nM. As for `O=C(NCCc1ccncc1)c1sccc1Nc1ccnc2[nH]ccc12` [Example 17, 3-(1H-Pyrrolo[2,3-b]pyridin-4-ylamino)-thiophene-2-carboxylic acid (2-pyridin-4-yl-ethyl)-amide], the figure is 100 to 1000 nM; as for `O=C(NCCc1cccc(C(F)(F)F)c1)c1sccc1Nc1ccnc2[nH]ccc12` [Example 18, 3-(1H-Pyrrolo[2,3-b]pyridin-4-ylamino)-thiophene-2-carboxylic acid [2-(3-trifluoromethyl-phenyl)-ethyl]-amide], less than 100 nM.

Turning to `O=C(NCCc1ccccn1)c1sccc1Nc1ccnc2[nH]ccc12` [Example 19, 3-(1H-Pyrrolo[2,3-b]pyridin-4-ylamino)-thiophene-2-carboxylic acid (2-pyridin-2-yl-ethyl)-amide], the concentration for half-maximal inhibition (IC50) fell in the range of 100 to 1000 nM. Regarding `O=C(NCCc1cccc(Cl)c1)c1sccc1Nc1ccnc2[nH]ccc12` [Example 20, 3-(1H-Pyrrolo[2,3-b]pyridin-4-ylamino)-thiophene-2-carboxylic acid [2-(3-chloro-phenyl)-ethyl]-amide], the IC50 was less than 100 nM. The value for `O=C(NCCc1cccs1)c1sccc1Nc1ccnc2[nH]ccc12` [Example 21, 3-(1H-Pyrrolo[2,3-b]pyridin-4-ylamino)-thiophene-2-carboxylic acid (2-thiophen-2-yl-ethyl)-amide] was less than 100 nM; that for `O=C(NCCc1cccc(F)c1)c1sccc1Nc1ccnc2[nH]ccc12` [Example 22, 3-(1H-Pyrrolo[2,3-b]pyridin-4-ylamino)-thiophene-2-carboxylic acid [2-(3-fluoro-phenyl)-ethyl]-amide] was less than 100 nM; that for `O=C(NCCc1ccc(F)cc1)c1sccc1Nc1ccnc2[nH]ccc12` [Example 23, 3-(1H-Pyrrolo[2,3-b]pyridin-4-ylamino)-thiophene-2-carboxylic acid [2-(4-fluoro-phenyl)-ethyl]-amide] was less than 100 nM.

In the case of `O=C(NCCSCc1ccco1)c1sccc1Nc1ccnc2[nH]ccc12` [Example 24, 3-(1H-Pyrrolo[2,3-b]pyridin-4-ylamino)-thiophene-2-carboxylic acid [2-(furan-2-ylmethylsulfanyl)-ethyl]-amide], the IC50 is less than 100 nM. For the compound `Cc1ccccc1CCNC(=O)c1sccc1Nc1ccnc2[nH]ccc12` [Example 25, 3-(1H-Pyrrolo[2,3-b]pyridin-4-ylamino)-thiophene-2-carboxylic acid (2-o-tolyl-ethyl)-amide], the IC50 is less than 100 nM. The value for `COc1cccc(CCNC(=O)c2sccc2Nc2ccnc3[nH]ccc23)c1` [Example 26, 3-(1H-Pyrrolo[2,3-b]pyridin-4-ylamino)-thiophene-2-carboxylic acid [2-(3-methoxy-phenyl)-ethyl]-amide] was less than 100 nM.

Regarding `O=C(NCCc1ccc(Br)cc1)c1sccc1Nc1ccnc2[nH]ccc12` [Example 27, 3-(1H-Pyrrolo[2,3-b]pyridin-4-ylamino)-thiophene-2-carboxylic acid [2-(4-bromo-phenyl)-ethyl]-amide], the IC50 is less than 100 nM.

As for `COc1ccc(CCNC(=O)c2sccc2Nc2ccnc3[nH]ccc23)cc1` [Example 28, 3-(1H-Pyrrolo[2,3-b]pyridin-4-ylamino)-thiophene-2-carboxylic acid [2-(4-methoxy-phenyl)-ethyl]-amide], the IC50 is less than 100 nM.

Consider `O=C(NCCNCc1ccccc1)c1sccc1Nc1ccnc2[nH]ccc12` [Example 29, 3-(1H-Pyrrolo[2,3-b]pyridin-4-ylamino)-thiophene-2-carboxylic acid (2-benzylamino-ethyl)-amide], for which the half-maximal inhibitory concentration (IC50) was less than 100 nM.

Consider `O=C(NCc1cccc(Cl)c1)c1sccc1Nc1ccnc2[nH]ccc12` [Example 30, 3-(1H-Pyrrolo[2,3-b]pyridin-4-ylamino)-thiophene-2-carboxylic acid 3-chloro-benzylamide], for which the IC50 was less than 100 nM. The value for `O=C(NCCCCO)c1sccc1Nc1ccnc2[nH]ccc12` [Example 31, 3-(1H-Pyrrolo[2,3-b]pyridin-4-ylamino)-thiophene-2-carboxylic acid (4-hydroxy-butyl)-amide] was 100 to 1000 nM; that for `CC(=O)NCCCCNC(=O)c1sccc1Nc1ccnc2[nH]ccc12` [Example 32, 3-(1H-Pyrrolo[2,3-b]pyridin-4-ylamino)-thiophene-2-carboxylic acid (4-acetylamino-butyl)-amide] was 100 to 1000 nM.

For the origin of these results see patent publication US9023847B2, “Azaheterocyclic compounds” (Merck Patent GmbH, priority 2009, dated 2015).
